Results reported in US11013673B2, “Cosmetic compositions containing quinones and their topical use on skin and hair” (Repairogen Corp, priority 2016, dated 2021).

Assays:
CUL4A [1] = molecular target: CUL4A (Homo sapiens, UniProt Q13619); test: BPB-CUL4A AlphaLISA assay (cell free CUL4 inhibition assay); format: biochemical
Protocol: (§1) A BPB-CUL4A AlphaLISA assay was performed using the 54 compounds to determine their CUL4A inhibitory properties in vitro. Next, these 54 leads were tested for their cell-based inhibitory activity against CUL4A. A first cell-based assay involved the inhibition of DNA damage-binding protein 2 (DDB2) degradation in mouse embryonic fibroblast (MEF) cells in vitro. To determine the specificity of the compounds, another cell-based assay was performed to determine the inhibition of IKBa degradation in HeLa cells in vitro. Preferably, the compounds show high DDB2 inhibition and less inhibition of IKBa degradation. IkBa is a target of […], and this assay provides insight into the specificity of the compounds. These tests led to the selection of three active compounds that passed inhibition and selectivity thresholds and, thus, were suitable for use in cosmetic compositions. These were thymoquinone, lapachol and myrtucommulone C.
The Table below reports the ability of compounds to disrupt CUL4A activity in vitro (in a cell free CUL4 inhibition assay) ascertained from the BPB-CUL4A AlphaLISA assay. Activity above 30% was set to distinguish true hits from false positives.

CUL4A [2] = molecular target: T1, CUL4A (Mus musculus, UniProt Q3TCH7); test: cell-based assay, inhibition of DDB2 degradation in MEF cells after UV; conditions: DDB2 remaining after UV treatment over baseline compared to DMSO control
T1 construct: endogenous in cells; host or cells: mouse embryonic fibroblast (MEF) cells
T1 sequence (Q3TCH7 whole entry): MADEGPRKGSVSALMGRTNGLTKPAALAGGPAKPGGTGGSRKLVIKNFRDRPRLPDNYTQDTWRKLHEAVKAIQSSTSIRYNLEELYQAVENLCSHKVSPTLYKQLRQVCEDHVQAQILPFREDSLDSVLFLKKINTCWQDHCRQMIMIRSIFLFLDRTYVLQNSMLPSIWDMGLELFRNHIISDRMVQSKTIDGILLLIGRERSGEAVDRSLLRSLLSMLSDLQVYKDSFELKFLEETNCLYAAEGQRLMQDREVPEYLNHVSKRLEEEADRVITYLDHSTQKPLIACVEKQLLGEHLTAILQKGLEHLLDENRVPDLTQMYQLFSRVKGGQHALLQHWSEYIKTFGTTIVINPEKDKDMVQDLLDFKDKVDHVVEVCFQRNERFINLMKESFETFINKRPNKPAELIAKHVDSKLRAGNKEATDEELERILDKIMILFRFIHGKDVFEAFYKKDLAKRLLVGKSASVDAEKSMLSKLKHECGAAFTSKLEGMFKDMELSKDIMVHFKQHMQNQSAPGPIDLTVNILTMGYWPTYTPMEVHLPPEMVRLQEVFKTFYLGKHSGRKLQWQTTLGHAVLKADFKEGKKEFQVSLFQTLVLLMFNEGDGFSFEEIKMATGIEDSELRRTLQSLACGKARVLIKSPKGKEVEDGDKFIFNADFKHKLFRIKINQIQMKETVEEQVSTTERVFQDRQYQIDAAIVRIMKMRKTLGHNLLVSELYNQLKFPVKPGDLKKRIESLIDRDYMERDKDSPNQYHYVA
Protocol: as §1
In this cell-based assay, the % is DDB2 ([…]) remaining after UV treatment over baseline compared to a control group. In the DMSO control group, the DDB2 remaining % was between 20-30%.

human fibroblast cell = test: Human Fibroblast Cell Assay: CPD ELISA of DNA damage after UVB; format: cell-based; conditions: UVB 35 mJ/cm^2, 12 hours
Protocol: Lastly, tests were conducted on human skin cells. The testing was performed using neonatal foreskin […], a type of skin cell that is a common model for skin testing across the cosmetic industry. The skin cells were purchased from Thermo Fisher Scientific Co. (NY) and grown in Dulbecco Modified Eagle Medium (DMEM) supplemented with 10% Fetal Bovine Serum (Thermo Fisher Scientific). Cultures were maintained at 37° C. within an air atmosphere of 5% carbon dioxide and about 95% humidity.
The skin cells were seeded in 12-well plates and incubated for 24 hours. After incubation, the cells were washed in […] (PBS) and irradiated with UVB at a dosage of 35 mJ/cm^2 using a Viber Lourmat BIO-Sun System (Marne-la-Vallee, France). The test compounds and control materials were added to the medium immediately following UVB irradiation; the treated mediums were allowed to continue for 12 hours at 37° C. under the air atmosphere with 5% carbon dioxide at about 95% humidity. In parallel, each test compound was added to non-irradiated cells as baseline controls. Untreated cells were used as negative controls. All treatments were performed in triplicate. Dosage levels for samples were 12.5 microMolar except lapachol dosed at 3 microMolar. Following incubation, the cells were washed with PBS, collected and stored at −80° C.
DNA was extracted from the collected cells using a QIAamp Blood Kit (QIAGEN, Calif., USA) in accordance with the manufacturer's protocol. The amounts of cyclobutane pyrimidine dimers (CPDs) in the various samples were determined by the CPD ELISA protocol. In accordance with this protocol, an OXISELECT® UV-Induced DNA Damage ELISA Kit (Cell Biolabs Inc., CA, USA) was employed for the testing done in accordance with the manufacturer's instructions. Amounts of CPD in UVB-treated samples were determined in percentage relative to the value of untreated fibroblasts. The greater the measured % CPD, the greater the DNA damage. Thus, in the Table below, the smaller the “Avg (% Untreated)” value, the better is the UVB damage induced inhibitory effect.
Mean standard deviation comparisons between data groups employed the GraphPad Prism 6.05 software (GraphPad Software, CA, USA). Statistical analysis was performed using ANOVA with Holm-Sidak's test or unpaired t-test with Welch's correction.

[3] = test system: primary human keratinocytes; test: cytotoxicity assay (Cell Titer96 Aqueous One) on keratinocytes; format: cell-based; conditions: 24 h
Protocol: (§2) Normal primary adult human keratinocytes derived from a donor were purchased from PromoCell (Heidelberg, Germany) and cultured in keratinocytes growth medium (Epilife+EDGS, Thermo Fisher Scientific, NY, USA). Keratinocytes cultures were maintained at 37° C. with 5% CO2 and ˜95% humidity.
(§3) Cytotoxicity was evaluated using the Cell Titer96 Aqueous One (Promega, Wis., USA) basic test according to manufacturer's instructions. Cells were seeded at a density of 10,000 cells/well in a 96-well plate and cultured overnight. Treatments with seven doses of compounds were carried out for 24 hours, in triplicates. Colorimetric analysis was performed using an absorbance of 490 nm. Inhibition of viability of more than 20% of the control values was considered cytotoxic.
The cytotoxicity assay on primary human keratinocytes from adult donor was performed after 24 h of culture in the presence of different concentrations of each compound, as indicated in FIG. 2A and Table 1.

[4] = test system: primary human fibroblasts; test: cytotoxicity assay (Cell Titer96 Aqueous One) on fibroblasts; conditions: 24 h
Protocol: Normal human dermal adult fibroblasts derived from a donor of were purchased from CELLnTec (Bern, Switzerland) and grown in DMEM supplemented with 10% FBS (Life Technologies, CA, USA). Fibroblasts cultures were maintained at 37° C. with 5% CO2 and ˜95% humidity.
as §3
The cytotoxicity assay on primary human fibroblasts from adult donor was performed after 24 h of culture in the presence of different concentrations of each compound, as indicated in FIG. 2B and Table 2.

[5] = test system: human epidermal keratinocytes; test: microarray analysis of differential gene expression in keratinocytes; conditions: for number of genes downregulated / number of genes upregulated: 24 h
Protocol: as §2
Normal primary human keratinocytes were seeded in 6-well plates and incubated for 24 h. Cells were then washed in PBS (Thermo Fisher Scientific) and reincubated for 24 more hours in the presence of RGN1518 and RGN1538 (each at two different concentrations), vehicle control, or positive control. Following treatment, the cells were washed with PBS, collected and stored frozen at −80° C. before RNA extraction.
RNA was extracted using a Qiagen RNeasy kit (Qiagen, CA, USA) according to manufacturer's protocol.
18 vials containing RNA isolated from human epidermal keratinocytes and 18 vials containing RNA isolated from human fibroblasts were shipped to Thermo Fisher Scientific, Advanced BioMedical Laboratories (Cinnaminson, N.J.) on dry ice for Affymetrix Human Clariom D array processing.
The differential gene expression was obtained using a threshold of 0.05 for statistical significance (p-value) and a log fold change of expression with absolute value of at least 1. Gene expression was further analysed using Differential Expression Analysis and Pathway Analysis iPathwayGuide) by Advaita Bioinformatics Services (Plymouth, Mich.) in the context of pathways obtained from the Kyoto Encyclopedia of Genes and Genomes (KEGG) database (Release 84.0+/10-26, October 17) (Kanehisa et al., 2000; Kanehisa et al., 2002), gene ontologies from the Gene Ontology Consortium database (2017 Nov. 6) (Ashburner et al., 2000; Gene Ontology Consortium, 2001), miRNAs from the miRBase (Release 21) and […] (Targetscan version:Mouse:7.1, Human:7.1) databases (Agarwal et al., 2015; Nam et al., 2014; Griffiths-Jones et al., 2008; Kozomara and Griffiths-Jones, 2014; Friedman et al., 2009; Grimson et al., 2007), and diseases from the KEGG database (Release 84.0+/10-26, October 17) (Kanehisa et al., 2000; Kanehisa et al., 2002). All references are available in the reports for bioinformatics analysis of differential gene expression provided by Advaita Bioinformatics Services at the following link.

human fibroblasts = test: microarray analysis of differential gene expression in fibroblasts; format: cell-based

CUL4A (Homo sapiens, UniProt Q13619), sequence (Q13619 whole entry, species assumed): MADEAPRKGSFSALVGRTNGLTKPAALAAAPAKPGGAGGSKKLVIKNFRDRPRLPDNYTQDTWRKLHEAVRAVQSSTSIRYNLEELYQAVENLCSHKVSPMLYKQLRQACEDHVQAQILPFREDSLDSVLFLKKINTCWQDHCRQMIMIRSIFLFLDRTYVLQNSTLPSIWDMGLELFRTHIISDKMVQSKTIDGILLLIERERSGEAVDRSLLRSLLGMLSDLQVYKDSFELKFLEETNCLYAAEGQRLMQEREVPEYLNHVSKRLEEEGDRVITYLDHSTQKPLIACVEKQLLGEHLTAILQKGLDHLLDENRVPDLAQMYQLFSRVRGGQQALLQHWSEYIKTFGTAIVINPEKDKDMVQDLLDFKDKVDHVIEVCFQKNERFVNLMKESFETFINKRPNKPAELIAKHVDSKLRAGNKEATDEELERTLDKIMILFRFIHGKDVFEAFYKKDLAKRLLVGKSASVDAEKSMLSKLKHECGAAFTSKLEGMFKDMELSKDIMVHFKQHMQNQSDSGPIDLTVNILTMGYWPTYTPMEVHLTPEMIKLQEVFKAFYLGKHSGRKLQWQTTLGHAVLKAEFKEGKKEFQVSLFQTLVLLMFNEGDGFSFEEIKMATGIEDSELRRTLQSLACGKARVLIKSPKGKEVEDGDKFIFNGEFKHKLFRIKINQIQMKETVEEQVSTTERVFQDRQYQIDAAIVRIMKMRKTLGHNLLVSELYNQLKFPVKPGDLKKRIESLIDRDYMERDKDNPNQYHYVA

## CC(C)=CCC1=C(O)C(=O)c2ccccc2C1=O [Lapachol, 2-hydroxy-3-(3-methylbut-2-enyl)naphthalene-1,4-dione]
CUL4A [1]
  % Inhibitory Activity: 34.4%
CUL4A [2]
  DDB2 remaining after UV (% of baseline): 80%
Human fibroblast cell; 3 microMolar
  Avg (% Untreated): 2076%
[3]; 15.5 μM
  Avg (% of untreated): 86%
[3]; 31.1 μM
  Avg (% of untreated): 86%
[3]; 62.25 μM
  Avg (% of untreated): 84%
[3]; cytotoxic = inhibition of viability of more than 20%
  concentrations that showed no cytotoxicity: up to 62.25 μM
[4]; 15.5 μM
  Avg (% of untreated): 99%
[4]; 31.1 μM
  Avg (% of untreated): 98%
[4]; 62.25 μM
  Avg (% of untreated): 100%
[4]; unit not given
  concentrations that showed no cytotoxicity: up to 62.25
[5]
  gene expression in Metabolism of Xenobiotics by Cytochrome P450 and Steroid Hormone Biosynthesis Pathways: induced differential gene expression
[5]; 31 μM, of 24905 assessed genes
  number of genes downregulated: 556 genes
  number of genes upregulated: 250 genes
[5]; 62 μM
  number of genes downregulated: 461 genes
  number of genes upregulated: 258 genes
[5]; CYP1A1, CYP1B1, CYP2BG, GSTM3, AKR1C1, AKR1C2, AKR1C3, AKR1B15
  expression of phase-I detoxification and steroid hormone biosynthesis genes: upregulated
[5]; FGF2, CSF1, SLCO2A1, SERPINB1
  expression of genes important for normal differentiation and function of skin: upregulated
[5]; IL6, IL1R2, IL2RG, IL1RL1
  expression of genes associated with inflammation: upregulated
[5]; MAD2L1, CDC20, CCNE2, CCNA2, CCNB2, CCNB1, BUB1, PLK1, CDC25C, BUB1B, TTK, ORC1, MCM6
  expression of Cell Cycle Pathway genes: downregulated
Human fibroblasts; 31 μM, 24 h, of 24905 genes
  number of genes downregulated: 30 genes
  number of genes upregulated: 104 genes
Human fibroblasts; at either concentration
  expression of RGCC and PTGS2 (regulation of fibroblast growth factor production): upregulated
Human fibroblasts; out of 70 genes
  number of genes involved in regulation of endothelial cell migration upregulated: 3 genes

## CC(C)C(=O)c1c(O)c(C(C2=C(O)C(C)(C)C(=O)C(C)(C)C2=O)C(C)C)c(O)c2c1OC1=C(C(=O)C(C)(C)C(=O)C1(C)C)C2C(C)C (centres unmarked) [Myrtucommulone C, myrtucommulone C]
CUL4A [1]
  % Inhibitory Activity: 48.9%
CUL4A [2]
  DDB2 remaining after UV (% of baseline): 115%
Human fibroblast cell; 12.5 microMolar
  Avg (% Untreated): 1362%

## NC(=O)c1cccnc1 [Niacinamide, reference compound]
Human fibroblast cell; 12.5 microMolar
  Avg (% Untreated): 2216%
[3]; 3.1 mM
  Avg (% of untreated): 105%
[3]; 6.2 mM
  Avg (% of untreated): 106%
[3]; 12.5 mM
  Avg (% of untreated): 104%
[3]; 25 mM
  Avg (% of untreated): 108%
[3]; 50 mM
  Avg (% of untreated): 95%
[3]; 100 mM
  Avg (% of untreated): 58%
[3]; 200 mM
  Avg (% of untreated): 46%
[3]
  concentrations that showed no cytotoxicity: up to 50 mM
[4]; 3.1 mM
  Avg (% of untreated): 100%
[4]; 6.2 mM
  Avg (% of untreated): 99%
[4]; 12.5 mM
  Avg (% of untreated): 97%
[4]; 25 mM
  Avg (% of untreated): 100%
[4]; 50 mM
  Avg (% of untreated): 91%
[4]; 100 mM
  Avg (% of untreated): 89%
[4]; 200 mM
  Avg (% of untreated): 61%
[4]
  concentrations that showed no cytotoxicity: up to 100 mM
[5]
  expression of ASS1 and PTGS2: affected
  expression of DNAJB9: downregulated
  expression of IL1RG and IL1RL1 receptors: no effect
  expression of IL6 and IL1RL1 receptor: upregulated
  expression of TYMS: downregulated
  expression of VEGFA: no effect
  gene expression in Metabolism of Xenobiotics by Cytochrome P450 and Steroid Hormone Biosynthesis Pathways: no major effect
[5]; CDK1, PLK1, RB1, CDC25C, CDC25B, MAD2L1, CDKN2B, CCNA2, MAD1L1, TTK, ZBTB17, RBL1, CCNB1, CCNB2, BUB1, CDC20, PTTG1, BUB1B
  expression of cell cycle genes: downregulated only some of the genes
[5]; COG6, ARFGAP3, IFT20
  expression of Golgi apparatus genes with the exception of MGAT4A: not affected
[5]; compared with RGN1518
  expression of FGF2: upregulated FGF2 to lesser extend
Human fibroblasts
  Mineral Absorption Pathway: affected
  vascular wound healing, spreading of epidermal cells and vasculature development (gene profile): no effect

## CC1=CC(=O)C(C(C)C)=CC1=O [Thymoquinone, 2-isopropyl-5-methylbenzo-1,4-quinone]
CUL4A [1]
  % Inhibitory Activity: 70.4%
CUL4A [2]
  DDB2 remaining after UV (% of baseline): 85%
Human fibroblast cell; 12.5 microMolar
  Avg (% Untreated): 2554%
